Experimental data as given in patent US8188082B2, “5,6,7,8-tetrahydro-imidazo[1,5-α]pyrazine derivatives” (Actelion Pharmaceuticals Ltd., priority 2006, dated 2012).

Columns and labels:
human orexin-1 receptor = molecular target: T1, human orexin-1 receptor (Homo sapiens, UniProt O43613); assay: Intracellular calcium measurements (FLIPR), orexin receptor antagonistic activity, OX1; format: cell-based; conditions: CHO cells expressing human orexin-1 receptor; 10 nM orexin-A as agonist
T1 construct: expressed in transfected cells; host or cells: CHO cells (G418 selection)
T1 sequence (O43613 1-425): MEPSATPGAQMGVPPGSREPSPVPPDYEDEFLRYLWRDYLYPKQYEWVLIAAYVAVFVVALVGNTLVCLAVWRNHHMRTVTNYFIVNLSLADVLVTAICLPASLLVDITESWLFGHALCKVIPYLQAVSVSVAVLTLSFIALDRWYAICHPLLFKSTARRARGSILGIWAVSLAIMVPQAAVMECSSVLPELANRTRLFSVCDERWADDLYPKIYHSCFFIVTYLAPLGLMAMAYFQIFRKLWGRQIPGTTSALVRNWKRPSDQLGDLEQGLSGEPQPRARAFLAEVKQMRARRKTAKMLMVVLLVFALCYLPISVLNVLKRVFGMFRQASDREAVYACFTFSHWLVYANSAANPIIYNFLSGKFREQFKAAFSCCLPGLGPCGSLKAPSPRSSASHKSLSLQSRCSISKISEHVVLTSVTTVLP
Experimental: (§1) Intracellular Calcium Measurements:
(§2) Chinese hamster ovary (CHO) cells expressing the human orexin-1 receptor and the human orexin-2 receptor, respectively, are grown in culture medium (Ham F-12 with L-Glutamine) containing 300 μg/ml G418, 100 U/ml penicillin, 100 μg/ml streptomycin and 10% inactivated fetal calf serum (FCS). The cells are seeded at 80,000 cells/well into 96-well black clear bottom sterile plates (Costar) which have been precoated with 1% gelatine in Hanks' Balanced Salt Solution (HBSS). All reagents are from Gibco BRL. The seeded plates are incubated overnight at 37° C. in 5% CO2.
(§3) Human orexin-A as an agonist is prepared as 1 mM stock solution in MeOH:water (1:1), diluted in HBSS containing 0.1% bovine serum albumin (BSA) and 2 mM HEPES for use in the assay at a final concentration of 10 nM.
(§4) Antagonists are prepared as 10 mM stock solution in DMSO, then diluted in 96-well plates, first in DMSO, then in HBSS containing 0.1% bovine serum albumin (BSA) and 2 mM HEPES.
(§5) On the day of the assay, 100 μl of loading medium (HBSS containing 1% FCS, 2 mM HEPES, 5 mM probenecid (Sigma) and 3 μM of the fluorescent calcium indicator fluo-3 AM (1 mM stock solution in DMSO with 10% pluronic acid) (Molecular Probes) is added to each well.
(§6) The 96-well plates are incubated for 60 min at 37° C. in 5% CO2. The loading solution is then aspirated and cells are washed 3 times with 200 μl HBSS containing 2.5 mM probenecid, 0.1% BSA, 2 mM HEPES. 100 μl of that same buffer is left in each well.
(§7) Within the Fluorescent Imaging Plate Reader (FLIPR, Molecular Devices), antagonists are added to the plate in a volume of 50 μl, incubated for 20 min and finally 100 μl of agonist is added. Fluorescence is measured for each well at 1 second intervals, and the height of each fluorescence peak is compared to the height of the fluorescence peak induced by 10 nM orexin-A with buffer in place of antagonist. For each antagonist, IC50 value (the concentration of compound needed to inhibit 50% of the agonistic response) is determined.

human orexin-2 receptor = molecular target: T2, human orexin-2 receptor (Homo sapiens, UniProt O43614); assay: Intracellular calcium measurements (FLIPR), orexin receptor antagonistic activity, OX2; format: cell-based; conditions: CHO cells expressing human orexin-2 receptor; 10 nM orexin-A as agonist
T2 construct: expressed in transfected cells; host or cells: CHO cells (G418 selection)
T2 sequence (O43614 1-444): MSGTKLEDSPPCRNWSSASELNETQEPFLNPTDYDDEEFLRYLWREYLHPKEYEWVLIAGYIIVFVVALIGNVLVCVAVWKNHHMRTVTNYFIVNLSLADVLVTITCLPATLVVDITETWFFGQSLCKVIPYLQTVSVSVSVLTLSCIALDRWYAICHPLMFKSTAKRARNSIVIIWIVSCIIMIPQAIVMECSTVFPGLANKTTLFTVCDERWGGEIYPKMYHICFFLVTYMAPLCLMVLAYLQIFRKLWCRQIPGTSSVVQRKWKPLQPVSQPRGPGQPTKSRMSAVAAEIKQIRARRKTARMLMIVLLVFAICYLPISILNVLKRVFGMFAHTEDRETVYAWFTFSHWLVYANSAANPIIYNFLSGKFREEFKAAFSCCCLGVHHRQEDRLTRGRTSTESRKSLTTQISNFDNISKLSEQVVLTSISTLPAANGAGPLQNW
Experimental: as §1, §2, §3, §4, §5, §6, §7

Structure (SMILES) | IC50 (human orexin-1 receptor) [nM] | IC50 (human orexin-2 receptor) [nM]
CNC(=O)[C@@H](c1ccccc1)N1CCn2c(C)nc(Cl)c2C1CCc1ccc(C)c(C)c1 (mixture of isomers) [11 (8S; 2′R)/(8R; 2′R)] | 36 | 11
CNC(=O)[C@@H](c1ccccc1)N1CCn2c(C)nc(C3CC3)c2[C@@H]1CCc1ccc(C(F)(F)F)cc1 [46 (8S; 2′R), (R)-2′-{1-cyclopropyl-3-methyl-(S)-8-[2-(4-trifluoromethyl-phenyl)-ethyl]-5,6-dihydro-8H-imidazo[1,5-a]pyrazin-7-yl}-N-methyl-2′-phenyl-acetamide] | 762 | 21
CNC(=O)[C@@H](c1ccccc1)N1CCn2c(C)nc(C#N)c2[C@@H]1CCc1ccc(C(F)(F)F)c(F)c1 [43 (8S; 2′R), (R)-2′-{1-cyano-(S)-8-[2-(3-fluoro-4-trifluoromethyl-phenyl)-ethyl]-3-methyl-5,6-dihydro-8H-imidazo[1,5-a]pyrazin-7-yl}-N-methyl-2′-phenyl-acetamide] | 538 | 14
CCc1nc(OC)c2n1CCN([C@@H](C(=O)NC)c1ccccc1)[C@H]2CCc1ccc(C)c(C)c1 [27 (8S; 2′R), (R)-2′-{(S)-8-[2-(3,4-dimethyl-phenyl)-ethyl]-3-ethyl-1-methoxy-5,6-dihydro-8H-imidazo[1,5-a]pyrazin-7-yl}-N-methyl-2′-phenyl-acetamide] | 5 | 4
C=Cc1nc(CC)n2c1[C@H](CCc1ccc(C(F)(F)F)cc1)N([C@@H](C(=O)NC)c1ccccc1)CC2 [28 (8S; 2′R), (R)-2′-{3-ethyl-(S)-8-[2-(4-trifluoromethyl-phenyl)-ethyl]-1-vinyl-5,6-dihydro-8H-imidazo[1,5-a]pyrazin-7-yl}-N-methyl-2′-phenyl-acetamide] | 176 | 29
CNC(=O)[C@@H](c1ccccc1)N1CCn2c(COC)nc(Cl)c2C1CCc1ccc(C(F)(F)F)cc1 (mixture of isomers) [16 (8S; 2′R)/(8R; 2′R)] | 2060 | 33
CNC(=O)[C@@H](c1ccccc1)N1CCn2c(C)nc(Cl)c2[C@H]1CCc1cc(F)c(C)c(F)c1 [10 (8R; 2′R), (R)-2′-{1-chloro-(R)-8-[2-(3,5-difluoro-4-methyl-phenyl)-ethyl]-3-methyl-5,6-dihydro-8H-imidazo[1,5-a]pyrazin-7-yl}-N-methyl-2′-phenyl-acetamide] | 72 | 14
CCc1nc(Cl)c2n1CCN([C@@H](C(=O)NC)c1ccccc1)[C@H]2COc1cccc(C(F)(F)F)c1 [53 (8R; 2′R), (R)-2′-[1-chloro-3-ethyl-(R)-8-(3-trifluoromethyl-phenoxymethyl)-5,6-dihydro-8H-imidazo[1,5-a]pyrazin-7-yl]-N-methyl-2′-phenyl-acetamide] | 412 | 2
CNC(=O)[C@@H](c1ccccc1)N1CCn2c(C)nc(C)c2C1CCc1ccc(OC)cc1OC (mixture of isomers) [25 (8S; 2′R)/(8R; 2′R)] | ≥ 10000 | 115
CCc1nc(C(F)(F)F)c2n1CCN([C@@H](C(=O)NC)c1ccccc1)[C@H]2CCc1ccc(C(F)(F)F)cc1 [15 (8S; 2′R), (R)-2′-{3-ethyl-1-trifluoromethyl-(S)-8-[2-(4-trifluoromethyl-phenyl)-ethyl]-5,6-dihydro-8H-imidazo[1,5-a]pyrazin-7-yl}-N-methyl-2′-phenyl-acetamide] | 807 | 15
CNC(=O)[C@@H](c1ccccc1)N1CCn2c(Cl)nc(Cl)c2C1CCc1ccc(C(F)(F)F)cc1 (mixture of isomers) [33 (8S; 2′R)/(8R; 2′R)] | 279 | 11
CCc1nc(Cl)c2n1CCN([C@@H](C(=O)NC)c1ccccc1)[C@H]2CCc1cc(F)c(OC)c(F)c1 [36 (8S; 2′R), (R)-2′-{1-chloro-(S)-8-[2-(3,5-difluoro-4-methoxy-phenyl)-ethyl]-3-ethyl-5,6-dihydro-8H-imidazo[1,5-a]pyrazin-7-yl}-N-methyl-2′-phenyl-acetamide] | 17 | 14
